Test results as given in PubChem BioAssay AID743395 (Broad Institute, 2014).

Each molecule was assayed on HepG2 viability, CellTiter-Glo ATP luminescence, 72 h (assay: viability loss in human hepatoma cells – cell-based, CellTiter-Glo luminescence, cherry-pick, set 2, cytotoxicity control, dose response (AID 743395)).
O=C(c1cccc(F)c1)N1CC(=O)N2[C@@H](CO)[C@@H](c3ccc(C#Cc4ccc(F)cc4)cc3)[C@@H]2C1 showed an AC35 of 17.9 µM. COc1ccc(C2CC(c3cccc(Br)c3)=NN2c2ccc(S(N)(=O)=O)cc2)cc1 (stereo unspecified) was tested, and the AC35 was 18.1 µM. O=C1C=CC(O)(c2cc(=O)c3c(O)cc(O)cc3o2)C=C1 gave an AC35 of 8.15 µM. COc1ccc(OC)c(-c2cnc(OC(C)(C)C)nc2OC(C)(C)C)c1 showed an AC35 of 19.3 µM. With Cc1cccc(N(C)C(=O)c2cc3c(=O)[nH]c4ccc(C)cc4c3s2)c1 the AC35 was 4.26 µM. Work on CC(=O)NC(c1ccc(Cl)cc1Cl)c1ccc2cccnc2c1O (stereo unspecified) yielded an AC35 of 0.921 µM. Molecule C[C@@H]1CN([C@@H](C)CO)C(=O)Cc2cc(NC(=O)Nc3cccc4ccccc34)ccc2O[C@@H]1CN(C)Cc1ccc(Cl)c(Cl)c1 has an AC35 of 14.5 µM. With COc1ccc2[nH]c(C(=O)N/N=C/c3ccc(O)cc3O)cc2c1 the AC35 was 3.37 µM. Work on COc1ccc(S(=O)(=O)Nc2cccc3ccc(O)cc23)cc1 yielded an AC35 of 13.8 µM. Molecule O=C(N/N=C/c1c(O)ccc2ccccc12)C(=O)N1CCCC1 has an AC35 of 15.7 µM. Cc1ccc(Nc2nc(-c3sc(C)nc3C)cs2)cc1 showed an AC35 of 3.7 µM. C=CCCC(=O)Nc1nc(C)c(-c2csc(Nc3cc(OC)ccc3OC)n2)s1 was tested, and the AC35 was 5.68 µM. COc1ccc2c3c([nH]c2c1)[C@H](CO)N(S(C)(=O)=O)CC31CCN(Cc2cccc(F)c2)CC1 was tested, and the AC35 was 5.92 µM. For COc1ccc([C@H]2CC(=O)C=C(c3ccc(OC)cc3OC)C2)cc1, the AC35 was 7.54 µM. With Cc1ccc(-c2ccc([C@H]3[C@@H](CO)N4CCCCN(C(=O)Nc5cccc(F)c5)C[C@H]34)cc2)cc1 the AC35 was 11 µM. Cc1ccc(-c2csc(Nc3ccccn3)n2)cc1 gave an AC35 of 13 µM. Work on CN1c2ccc(-c3ccc(F)cc3)cc2[C@H]2[C@H](CCN2S(=O)(=O)c2cccc(F)c2)[C@H]1CO yielded an AC35 of 17.2 µM. O=C(CCc1ccccc1)NCC(c1ccco1)N1CCc2ccccc21 (stereo unspecified) was tested, and the AC35 was 16.7 µM. Nc1sc(-c2ccccc2)cc1-c1n[nH]c(=S)n1C1CCCCC1 showed an AC35 of 7.54 µM. Cc1cc(NCc2ccccn2)n2ncc(-c3ccccc3)c2n1 gave an AC35 of 7.75 µM. COc1ccc(NC(=O)c2nc(C)c(C3(C)CC(c4cccnc4)=NO3)s2)cc1 (stereo unspecified) was tested, and the AC35 was 13.9 µM. For COc1cc(OC)cc(C(=O)OCC(=O)NC(c2ccccc2)c2ccccc2)c1, the AC35 was 16.2 µM. For COC(=O)c1cn(NC(=O)c2cc([N+](=O)[O-])ccc2F)c(=O)c2ccccc12, the AC35 was 0.521 µM. For COC(=O)c1ccc(/C=C/c2c(-c3ccc(OC)cc3)oc3ccc(N4CCOCC4)cc23)cc1, the AC35 was 16 µM. Brc1ccc2c(c1)C(C1=NCCN1)c1ccccc1CS2 (stereo unspecified) gave an AC35 of 18.3 µM. CCc1nc(N)nc(N)c1-c1ccc(Cl)c([N+](=O)[O-])c1 showed an AC35 of 0.276 µM. For Cc1cc(NCc2ccccn2)n2nc(C)c(-c3ccccc3)c2n1, the AC35 was 10 µM. With O=C(Nc1cccc(C2=NCCN2)c1)Nc1cccc(C2=NCCN2)c1 the AC35 was 5.69 µM. For CC1=Nc2cc(C(=O)NCC3CCCO3)ccc2Sc2ccc(Br)cc21 (stereo unspecified), the AC35 was 19.4 µM. COC(C(=O)C(O)C(C)O)C1Cc2cc3cc(OC4CC(OC5CC(O)C(O)C(C)O5)C(O)C(C)O4)c(C)c(O)c3c(O)c2C(=O)C1OC1CC(OC2CC(OC3CC(O)C(OC)C(C)O3)C(O)C(C)O2)C(O)C(C)O1 (stereo unspecified) was tested, and the AC35 was 0.148 µM. For O=C(C[C@@H]1CC[C@H]2[C@@H](COC[C@H](O)CN2Cc2ccc3c(c2)OCO3)O1)Nc1ccc(-c2ccccc2)cc1, the AC35 was 16.8 µM. With COc1ccc(O)c(/C=N/NC(=O)c2ccc(N3CCCC3=O)cc2)c1 the AC35 was 2.93 µM. With O=C(C1CC1)N1CC(=O)N2[C@H](CO)[C@@H](c3ccc(-c4ccccc4F)cc3)[C@@H]2C1 the AC35 was 18.9 µM. Work on CC1=C/C(=C\C=C(C#N)C#N)N(C)c2ccccc21 yielded an AC35 of 21.3 µM. With COc1ccc(S(=O)(=O)N2CC[C@@H]3[C@@H](CO)Nc4ccc(-c5cccc(C#N)c5)cc4[C@@H]32)cc1 the AC35 was 14 µM. CCOC(=O)[C@]12CCCC=C1N(Cc1cccc3ccccc13)C(=O)[C@H](CC(=O)NCc1cccc(C(F)(F)F)c1)C2 was tested, and the AC35 was 9.99 µM. CCN(CC)CCn1nc2c3c(cccc3c1=O)-c1ccccc1-2 showed an AC35 of 2.82 µM. In the case of O=C(Nc1nc(-c2ccccn2)cs1)c1ccc(F)c(S(=O)(=O)N2CCOCC2)c1, the AC35 is reported as 11.3 µM. For O=C(N/N=C/c1c(O)ccc2ccccc12)c1ccc(CO)nc1, the AC35 was 5.89 µM. In the case of O=C(C1CCCCC1)N1CC(=O)N2[C@@H](CO)[C@H](c3ccc(C#Cc4cccc(F)c4)cc3)[C@@H]2C1, the AC35 is reported as 16.4 µM. In the case of Cc1ccc2nc(-c3ccc4c(c3)OCCO4)cn2c1, the AC35 is reported as 8.36 µM. In the case of CC(C)(C)c1ccc(OCC(=O)Nc2ccc3c4c(cccc24)C(=O)NC3=O)cc1, the AC35 is reported as 18.5 µM. Molecule Cc1cccc(NC(=S)N/N=C/c2cccc(O)c2)c1C has an AC35 of 12.2 µM. Molecule O=c1c2ccccc2sc2c(CO)ccc(NCCN3CCCCC3)c12 has an AC35 of 4.82 µM. Work on COc1ccc(NC(=O)c2nc(C)c(C3(C)CC(c4ccccc4)=NO3)s2)cc1 (stereo unspecified) yielded an AC35 of 17.1 µM. In the case of Nc1ccc2ccc3cccc[n+]3c2c1, the AC35 is reported as 21.5 µM. For COc1ccc2c3c([nH]c2c1)[C@@H](CO)N(C(=O)C1CCOCC1)CC31CCN(Cc2cccc(F)c2)CC1, the AC35 was 1.04 µM. O=C(O)c1ccccc1-c1c2cc(I)c(=O)c(I)c-2oc2c(I)c(O)c(I)cc12 gave an AC35 of 8.34 µM. With O=C1c2cccc3c(O)ccc(c23)C(=O)N1Cc1ccco1 the AC35 was 15.6 µM. N#CC(C#N)=C1C=C2C=C(N3CCCCCC3)CCC2CC1 (stereo unspecified) showed an AC35 of 18 µM. Work on COc1ccc2noc3c2c1C(=O)c1ccccc1-3 yielded an AC35 of 15.4 µM.
